This note sets out measurements from US20240285670A1, “THERAPEUTIC TREATMENT OF TUMORS BY BLOCKING THE HEME SYNTHESIS-EXPORT AXIS” (Università degli Studi di Torino, priority 2021, published 2024).

Format in all cases: cell-based, human
One data set concerns C80 cells. Put plainly: Flow cytometric analysis of apoptosis in C80 cells. The settings on record: FLVCR1a-silenced vs scramble shRNA, synchronized C80 cells. An excerpt: (A) Proliferation of Caco2 cells assessed by crystal violet staining at the indicated days; bar=1000 μm. […] Staining quantification is reported in the bar graph as percentage of crystal violet stained area. Data represent mean±SEM, n=4. For statistical analyses, a two-way analysis of variance was used, followed by the Bonferroni correction for multiple group comparisons; *=p<0.05, ***=p<0.001. (B) Caco2 cells viability the day of plating (day 0) and three days after plaiting (day 3). The measure is considered a readout of cell proliferation. […] Data represent mean±SEM, n=3 wells. For statistical analyses, a two-way analysis of variance was used, followed by the Bonferroni correction for multiple group comparisons; *=p<0.05, **=p<0.01. (C, D, E) Representative flow cytometric analyses of apoptosis in synchronized Caco2 (C), SKCO1 (D) and C80 (E) cells. […] Data represent mean±SEM, n=4 wells pooled from two independent experiments. For statistical analyses, an unpaired Student's t-test was used; *=p<0.05, **=p<0.01. […]
Stained cells were analyzed using a FACSCanto II cytofluorimeter and processed with BD FACSDIVA Software v8.1 (BD Biosciences, Milan, IT; http://www.bdbiosciences.com/instruments/software/facsdiva/index.jsp/ RRID:SCR_001456), acquiring at least 10,000 events per sample or 25,000 cells per sample for cell cycle experiments.
In general terms: In flow cytometry, cells or beads pass a laser one at a time.

For a further data set, the system named is Caco2 cells. Put plainly: Proliferation of Caco2 cells (crystal violet staining, cell viability). The settings on record: FLVCR1a-silenced vs scramble shRNA Caco2 cells. The source says: (A) Proliferation of Caco2 cells assessed by crystal violet staining at the indicated days; bar=1000 μm. […] Staining quantification is reported in the bar graph as percentage of crystal violet stained area. Data represent mean±SEM, n=4. For statistical analyses, a two-way analysis of variance was used, followed by the Bonferroni correction for multiple group comparisons; *=p<0.05, ***=p<0.001. (B) Caco2 cells viability the day of plating (day 0) and three days after plaiting (day 3). The measure is considered a readout of cell proliferation. […] Data represent mean±SEM, n=3 wells. For statistical analyses, a two-way analysis of variance was used, followed by the Bonferroni correction for multiple group comparisons; *=p<0.05, **=p<0.01. (C, D, E) Representative flow cytometric analyses of apoptosis in synchronized Caco2 (C), SKCO1 (D) and C80 (E) cells. […]
To assess cell viability, the CellTiter-Fluor Cell Viability Assay (Promega, Madison, WI USA, catalog n°G6080) was used. […] The detection of cell viability at different consecutive time points was regarded as a readout of cell proliferation.
For crystal violet staining, 1*10^4 Caco2 cells were seeded in 6-well plates. […] Stained area was assessed by analyses of four representative photos per day for each triplicate using Fiji open source software (Schindelin et al., 2012) (http://fiji.sc/ RRID:SCR_002285).

In another data set the test system is SKCO1 cells. Description: Activity of mitochondrial ETC complexes I-IV in SKCO1 cells. The settings on record: FLVCR1a-silenced vs scramble shRNA SKCO1 cells. An excerpt:
(A, C, E) Activities of the mitochondrial electron transport chain complexes I-IV. FLVCR1a-silenced Caco2 (A), SKCO1 (C) or C80 cells (E) are compared to cells expressing a scramble shRNA. Results were expressed as nmol NAD^+/min/mg mitochondrial protein for complex I, nmol reduced cytochrome c/min/mg mitochondrial protein for complexes II-III, nmol oxidized cytochrome c/min/mg mitochondrial protein for complex IV. Data represent mean±SEM, n=3. For statistical analyses, an unpaired Student's t-test was used; *=p<0.05, **=p<0.01. (B, D, F) Mitochondrial ATP levels measured by a bioluminescent assay kit. FLVCR1a-silenced Caco2 (B), SKCO1 (D) or C80 cells (F) are compared to cells expressing a scramble shRNA. Results are expressed as nmol/mg mitochondrial proteins. Data represent mean±SEM, n=3. […] Results were expressed as nmol NAD^+/min/mg mitochondrial protein for complex I, nmol reduced cytochrome c/min/mg mitochondrial protein for complexes II-III, nmol oxidized cytochrome c/min/mg mitochondrial protein for complex IV. […] (H) Mitochondrial ATP levels measured by a bioluminescent assay kit in Caco2 cells overexpressing FLVCR1a (indicated as FLVCR1a+) compared to cells stably transduced with an empty vector. Results are expressed as nmol/mg mitochondrial proteins. […]
The activity of mitochondria respiration complexes was measured according to (Wibom et al., 2002).

Turning to “FLVCR1a shRNA: shRNA specifically down-regulating FLVCR1a without targeting FLVCR1b; pLKO.1 lentiviral clone TRCN0000059599, antisense SEQ ID No.: 2 (antisense TTGCTAATGATGCTGTACTGG; sense CCAGTACAGCATCATTAGCAA)”, in the data set on C80 cells, the apoptosis result is listed as “increased apoptosis”. Besides, the cell proliferation entry in the data set with Caco2 cells is reported as “proliferated more slowly”. Besides, in the data set on SKCO1 cells, the ETC complexes activity result is “increased ETC complexes activity”.
